Experimental data reported in ChEMBL document CHEMBL2203062 (Bioorg Med Chem Lett, 2012).

Tests used:
[1] = Selectivity ratio of IC50 for HDAC3 to IC50 for IC50 for HDAC6
Histone deacetylase 1 = Histone deacetylase 1 (Homo sapiens, UniProt Q13547); experiment: Inhibition of HDAC1 using Fluor-de-Lys as substrate compound pretreated for 30 mins before substrate addition by fluorescence assay
Histone deacetylase 3 = Histone deacetylase 3 (Homo sapiens, UniProt O15379); experiment: Inhibition of HDAC3 using Fluor-de-Lys as substrate compound pretreated for 30 mins before substrate addition by fluorescence assay
[2] = target: T1, Protein deacetylase HDAC6 (Homo sapiens, UniProt Q9UBN7); experiment: Inhibition of HDAC6 using Fluor-de-Lys as substrate compound pretreated for 30 mins before substrate addition by fluorescence assay
T1 sequence (Q9UBN7 whole entry): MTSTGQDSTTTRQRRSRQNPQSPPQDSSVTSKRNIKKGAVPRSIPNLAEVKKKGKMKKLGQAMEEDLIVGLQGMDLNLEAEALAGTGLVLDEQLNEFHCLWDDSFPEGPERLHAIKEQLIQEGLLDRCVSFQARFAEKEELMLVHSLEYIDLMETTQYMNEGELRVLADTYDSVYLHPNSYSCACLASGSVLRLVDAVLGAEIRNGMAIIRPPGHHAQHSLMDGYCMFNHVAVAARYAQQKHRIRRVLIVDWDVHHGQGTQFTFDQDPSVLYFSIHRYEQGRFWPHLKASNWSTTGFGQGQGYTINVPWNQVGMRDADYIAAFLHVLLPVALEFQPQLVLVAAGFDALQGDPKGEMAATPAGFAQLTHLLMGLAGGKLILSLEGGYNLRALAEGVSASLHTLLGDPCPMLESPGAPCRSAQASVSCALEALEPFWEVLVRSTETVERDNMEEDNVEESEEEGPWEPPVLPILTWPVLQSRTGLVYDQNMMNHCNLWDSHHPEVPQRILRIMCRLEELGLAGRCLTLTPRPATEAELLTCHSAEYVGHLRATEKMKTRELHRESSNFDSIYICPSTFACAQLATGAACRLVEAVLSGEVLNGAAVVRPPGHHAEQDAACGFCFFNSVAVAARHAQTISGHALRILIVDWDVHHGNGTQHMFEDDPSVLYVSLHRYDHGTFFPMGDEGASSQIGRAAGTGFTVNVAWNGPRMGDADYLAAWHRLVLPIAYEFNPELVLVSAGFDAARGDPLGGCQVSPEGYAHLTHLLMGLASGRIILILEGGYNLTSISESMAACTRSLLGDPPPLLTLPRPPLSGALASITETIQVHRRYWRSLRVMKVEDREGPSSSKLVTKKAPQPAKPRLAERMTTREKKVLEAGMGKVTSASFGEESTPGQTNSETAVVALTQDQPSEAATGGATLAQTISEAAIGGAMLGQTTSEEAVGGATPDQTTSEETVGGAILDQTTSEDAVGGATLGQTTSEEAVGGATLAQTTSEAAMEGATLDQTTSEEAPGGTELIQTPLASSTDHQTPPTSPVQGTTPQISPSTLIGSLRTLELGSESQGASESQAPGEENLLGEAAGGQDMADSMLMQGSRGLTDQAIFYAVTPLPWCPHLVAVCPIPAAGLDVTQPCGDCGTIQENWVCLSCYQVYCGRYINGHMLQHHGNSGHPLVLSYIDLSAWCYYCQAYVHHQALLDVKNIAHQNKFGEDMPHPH

Histone deacetylase = experiment: Inhibition of HDAC in human Hela cell lysate using Fluor-de-Lys as substrate compound pretreated for 30 mins before substrate addition by fluorescence assay; assay type: cell-based

Sequence of Histone deacetylase 1 (Q13547 whole entry): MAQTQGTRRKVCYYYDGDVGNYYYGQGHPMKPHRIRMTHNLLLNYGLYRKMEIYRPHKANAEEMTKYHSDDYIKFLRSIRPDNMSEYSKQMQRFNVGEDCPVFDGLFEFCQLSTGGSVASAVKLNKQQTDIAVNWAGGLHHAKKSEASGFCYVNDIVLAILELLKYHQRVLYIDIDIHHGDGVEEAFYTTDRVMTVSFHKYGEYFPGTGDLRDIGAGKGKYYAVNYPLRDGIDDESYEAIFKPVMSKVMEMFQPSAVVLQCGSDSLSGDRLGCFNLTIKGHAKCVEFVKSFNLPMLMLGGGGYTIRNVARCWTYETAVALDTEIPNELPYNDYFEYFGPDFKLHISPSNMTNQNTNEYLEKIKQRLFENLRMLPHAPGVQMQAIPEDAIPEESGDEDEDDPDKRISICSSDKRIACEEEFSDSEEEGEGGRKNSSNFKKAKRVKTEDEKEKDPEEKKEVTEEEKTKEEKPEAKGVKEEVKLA
Sequence of Histone deacetylase 3 (O15379 whole entry): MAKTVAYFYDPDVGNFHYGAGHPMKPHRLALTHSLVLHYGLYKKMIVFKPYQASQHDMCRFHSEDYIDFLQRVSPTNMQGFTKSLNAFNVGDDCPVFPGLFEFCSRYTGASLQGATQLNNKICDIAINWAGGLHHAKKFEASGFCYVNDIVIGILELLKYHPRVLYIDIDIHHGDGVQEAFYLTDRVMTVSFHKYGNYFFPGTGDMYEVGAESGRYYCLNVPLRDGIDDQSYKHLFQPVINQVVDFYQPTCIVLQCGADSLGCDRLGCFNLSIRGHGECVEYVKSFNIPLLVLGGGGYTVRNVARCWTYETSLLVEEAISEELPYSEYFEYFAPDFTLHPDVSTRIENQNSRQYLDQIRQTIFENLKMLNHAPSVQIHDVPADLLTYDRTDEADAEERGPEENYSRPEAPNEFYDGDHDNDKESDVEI

Row | Structure (SMILES) | Ratio IC50 [1] | IC50 (Histone deacetylase 1) [nM] | IC50 (Histone deacetylase 3) [nM] | IC50 [2] [nM] | IC50 (Histone deacetylase) [nM]
1 | CCC(CCCCC(=O)Nc1ccccc1)CC(=O)NO (stereo unspecified) | 12 |  |  |  | 
2 | CC(C)(C)C(CCCCC(=O)NO)CC(=O)Nc1ccccc1 (stereo unspecified) | 2 | 990 | 5400 | 2400 | 1940
